# Reference: patent publication US6350585B1, “Reagent for assay of amylase isozyme activity” (priority 1998, dated 2002)
# Target: T1, P-type amylase (Homo sapiens, UniProt P04746)
# T1 construct: Serum (1, 2 or 3); from tissue; host or cells: serum
# T1 sequence (P04746 16-511): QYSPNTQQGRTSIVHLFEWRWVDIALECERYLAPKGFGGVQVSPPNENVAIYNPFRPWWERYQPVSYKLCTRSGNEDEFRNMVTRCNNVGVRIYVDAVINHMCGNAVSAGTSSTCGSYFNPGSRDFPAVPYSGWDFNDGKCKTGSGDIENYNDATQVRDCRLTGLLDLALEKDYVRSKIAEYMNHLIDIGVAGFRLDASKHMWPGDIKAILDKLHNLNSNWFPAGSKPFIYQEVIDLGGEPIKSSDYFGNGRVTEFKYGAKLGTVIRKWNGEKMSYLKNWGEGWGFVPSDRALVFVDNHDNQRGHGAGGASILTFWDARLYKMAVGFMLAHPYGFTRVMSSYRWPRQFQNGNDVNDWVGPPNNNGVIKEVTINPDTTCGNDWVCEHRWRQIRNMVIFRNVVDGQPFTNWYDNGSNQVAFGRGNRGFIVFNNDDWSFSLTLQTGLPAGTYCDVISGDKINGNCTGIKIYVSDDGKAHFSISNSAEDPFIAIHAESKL
# Experiment: P-type amylase activity assay of serum with reagent E
# Assay type: biochemical
# Conditions: for P-type amylase activity value / Blank, change in absorbance per minute: composition E; for P-type amylase activity value: potassium thiocyanate 140 mM; for Blank, change in absorbance per minute: distilled water as sample
# Experimental: Good buffer (pH 6.2) 50 mM
# S-type amylase inhibitory antibody 88E8 (manufactured by Roche Diagnostics K.K.) 15 mg/L
# S-type amylase inhibitory antibody 66C7 (manufactured by Roche Diagnostics K.K.) 1.25 mg/L
# Potassium thiocyanate 140 mM
# Substrate (GalG2CNP (Example) or G3CNP (Comparative Example)) 2.6 mM
# (1) Distilled water (blank)
# Each of the above-mentioned reagents (0.05 mL) was added to the above reagent E (3 mL) and the mixtures were left standing at 37° C. for 3 minutes. Then, change in absorbance at 405 nm was assayed and change in absorbance per minute was calculated. The obtained change in absorbance was converted to P-type amylase activity value at this composition using the molecular extinction coefficient of CNP.
Compound,P-type amylase activity value (Serum 1),P-type amylase activity value (Serum 2),P-type amylase activity value (Serum 3),"Blank, change in absorbance per minute","sensitivity (change in absorbance) compared with Comparative Example (Table 5, serum samples)"
"O=[N+]([O-])c1ccc(O[C@H]2O[C@H](CO)[C@@H](O[C@H]3O[C@H](CO)[C@@H](O[C@H]4O[C@H](CO)[C@@H](O)[C@H](O)[C@H]4O)[C@H](O)[C@H]3O)[C@H](O)[C@H]2O)c(Cl)c1 [Example G3CNP, 2-chloro-4-nitrophenylmaltotrioside, reference compound]",16.8 IU/L,106.3 IU/L,80.9 IU/L,0.0006 ABS/min,
"O=[N+]([O-])c1ccc(O[C@H]2O[C@H](CO)[C@@H](O[C@H]3O[C@H](CO)[C@@H](O[C@@H]4O[C@H](CO)[C@H](O)[C@H](O)[C@H]4O)[C@H](O)[C@H]3O)[C@H](O)[C@H]2O)c(Cl)c1 [GalG2CNP, 2-chloro-4-nitrophenyl 4-O-β-D-galactopyranosylmaltoside]",32.3 IU/L,205.0 IU/L,156.8 IU/L,0.0004 ABS/min,superior sensitivity
